This passage reports GI50 and TGI results from PubChem BioAssay (NCI).

Where “and” joins values, the source holds several entries; their conditions need not be identical. Equal entries are not always repeated.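 Five compound concentrations were applied to cells in 96-well plates for 48 hours; endpoints were derived by simple linear interpolation of the resulting dose-response curve. Abbreviation: GI50, concentration required for 50% inhibition of growth. TGI: total growth inhibition.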

What all share (test): NCI-60 cell line screen, 48 h
The subject of experiment [1] is NCI/ADR-RES ovarian.
Experiment [2] deals with RPMI-8226 leukemia.
Experiment [3] deals with SK-MEL-5 melanoma.
Experiment [4] deals with A549 NSCLC.
For experiment [5], the system named is CCRF-CEM leukemia.
Experiment [6] has as its system NCI-H23 lung.
For experiment [7], the system named is IGROV1 ovarian.
The subject of experiment [8] is UACC-62 melanoma.
The subject of experiment [9] is U251 CNS.
In experiment [10] the test system is SW-620 colon.

Turning to `c1ccc(-c2nnc(Nc3ccc4c(c3)OCCO4)o2)c(NCc2ccncc2)c1`, the GI50 is 0.0162 µM in experiment [1]; 44.5 nM in [2]; 25.7 nM in experiment [3]; 38.8 nM in [4]; 33 nM in experiment [5]; 33 nM in [6]. Also, the GI50 in experiment [7] is 62.4 nM; in [8], 31.2 nM; in experiment [9] it was 36.9 nM; in experiment [10] it was 25.5 nM. Besides, the TGI in experiment [1] was above 51.3 µM; in experiment [2] it was 7.63 µM; in experiment [3], 0.153 µM; in experiment [4], 15.4 µM; in experiment [5], above 100 µM; in experiment [6], 6.81 µM. Further, the TGI in experiment [7] is 19.1 µM; in experiment [8], above 100 µM; in experiment [9], above 35.5 µM; in [10], above 100 µM.
With `CN(C)CCNC(=O)Cn1ccc(=O)c2ccc([N+](=O)[O-])cc21`, the TGI in experiment [1], in experiment [2], in experiment [3], in [4], in [5] and in experiment [6] was above 100 µM in each case. For the same molecule, the TGI in experiment [7], in experiment [8], in [9] and in experiment [10] was above 100 µM in each case.
`CC(=O)OC1CCC2(C)C(CCC3C4CC=C(C(C)=O)C4(C)OC(=O)CC32)C1` (stereo not given): the GI50 in experiment [1] is 3.45 µM; in experiment [2], 1790 nM; in [3], 2130 nM; in [4], 7220 nM; in experiment [5], 1300 nM; in experiment [6], 2900 nM. The GI50 in experiment [7] is 2880 nM; in experiment [8], 1720 nM; in experiment [9], 10100 nM; in [10], 1520 nM. The TGI in experiment [1] turned out to be 13 µM; in [2], 4.86 µM; in experiment [3], 4.95 µM; in experiment [4], 23.1 µM; in [5], 4.87 µM; in experiment [6], 10.6 µM. The TGI is 10.3 µM in [7], 3.53 µM in experiment [8], 21.8 µM in experiment [9] and 3.43 µM in [10].
Take `COc1ccc(/C=C/C(=O)c2ccc3cc(OC)c(OC)cc3c2)cc1OC`: the GI50 in [1] is 2.71 µM; in [2] it was 1900 nM; in experiment [3], 2300 nM; in [4], 2590 nM; in [5] it was 3030 nM; in experiment [6], 6900 nM. For the same molecule, the GI50 in experiment [7] is 4720 nM; in experiment [8], 3710 nM; in [9], 3330 nM; in experiment [10], 3320 nM. For the same molecule, the TGI stood at 8.85 µM in [1]; 5.07 µM in [2]; 6.61 µM in [3]; 10.6 µM in experiment [4]; 31.6 µM in [5]; 32 µM in [6]. In addition, the TGI was 63.4 µM in experiment [7], 16.9 µM in experiment [8], 15.2 µM in experiment [9] and 14.2 µM in [10].
As to `COc1ccc2[nH]c(=O)c(/C=C/C(=O)/C=C/c3ccc(O)c(OC)c3)cc2c1`, the GI50 in experiment [1] is 3.39 µM; in [2], 359 nM; in experiment [3], 1770 nM; in [4], 2240 nM; in [5] it was 2060 nM; in [6], 2040 nM. Further, the GI50 in [7] was 1770 nM; in experiment [8] it was 1520 nM; in [9] it was 1170 nM; in [10] it was 1130 nM. Further, the TGI in [1] is above 100 µM; in experiment [2], 1.65 µM; in experiment [3], 3.27 µM; in experiment [4], 6.35 µM; in experiment [5], above 100 µM; in [6] it was 4.88 µM. Moreover, the TGI in experiment [7] was 4.24 µM; in [8], 3.19 µM; in experiment [9], 2.68 µM; in experiment [10], 3.33 µM.
For the molecule `C/C(=N\NC(=O)c1ccccc1O)c1cccc(/C(C)=N/NC(=O)c2ccccc2O)n1`, the GI50 in experiment [1] was above 100 µM; in [2] it was above 100000 nM; in experiment [3] it was 621 nM; in [4], above 70800 nM; in experiment [5], 693 nM; in experiment [6], 16000 nM and 1730 nM. The GI50 is 2400 nM and 15400 nM in experiment [7]; 614 nM in experiment [8]; 2020 nM and 502 nM in experiment [9]; 632 nM in [10]. Also, the TGI in experiment [1] was above 100 µM; in [2] it was above 100 µM; in [3], 44.9 µM and > 48 µM; in experiment [4], above 100 µM; in experiment [5], 48.8 µM; in experiment [6] it was 63.8 µM and > 100 µM. The TGI in experiment [7] is 43.8 µM and > 100 µM; in experiment [8], 20.6 µM and > 100 µM; in experiment [9], 15.8 µM and > 100 µM; in [10], above 100 µM.
